The assay addresses T1, BTK enzyme (recombinant full-length BTK, hBTK) (Homo sapiens, UniProt Q06187).
T1 construct: recombinant protein from baculovirus-transfected Sf9 cells: full-length BTK, 6HIS-tag cleaved; 6HIS (cleaved yes); made in house; host or cells: baculovirus-transfected Sf9 cells
Nature of the assay: Btk enzyme activity assay (LANCE TR-FRET). Particulars: 60 minute compound & enzyme incubation, 50 pM hBTK, 25 μM ATP, read-out: BTK binding IC50. The class given is biochemical. On the procedure: BTK enzymatic activity was determined with the LANCE (Lanthanide Chelate Excite) TR-FRET (Time-resolved fluorescence resonance energy transfer) assay. In this assay, the potency (IC50) of each compound was determined from an eleven point (1:3 serial dilution; final compound concentration range in assay from 1 μM to 0.017 nM) titration curve using the following outlined procedure. To each well of a black non-binding surface Corning 384-well microplate (Corning Catalog #3820), 5 nL of compound (2000 fold dilution in final assay volume of 10 μL) was dispensed, followed by the addition of 7.5 μL of 1× kinase buffer (50 mM Hepes 7.5, 10 mM MgCl2, 0.01% Brij-35, 1 mM EGTA, 0.05% BSA & 1 mM DTT) containing 5.09 pg/μL (66.67 pM) of BTK enzyme (recombinant protein from baculovirus-transfected Sf9 cells: full-length BTK, 6HIS-tag cleaved). Following a 60 minute compound & enzyme incubation, each reaction was initiated by the addition of 2.5 μL 1× kinase buffer containing 8 μM biotinylated “AS” peptide (Biotin-EQEDEPEGDYFEWLE-NH2), and 100 μM ATP. The final reaction in each well of 10 μL consists of 50 pM hBTK, 2 μM biotin-AS-peptide, and 25 μM ATP. Phosphorylation reactions were allowed to proceed for 120 minutes. Reactions were immediately quenched by the addition of 20 uL of 1× quench buffer (15 mM EDTA, 25 mM Hepes 7.3, and 0.1% Triton X-100) containing detection reagents (0.626 nM of LANCE-Eu-W1024-anti-phosphoTyrosine antibody, PerkinElmer and 86.8 nM of Streptavidin-conjugated Dylight 650, Dyomics/ThermoFisher Scientific). After 60 minutes incubation with detection reagents, reaction plates were read on a PerkinElmer EnVision plate reader using standard TR-FRET protocol. Briefly, excitation of donor molecules (Eu-chelate:anti-phospho-antibody) with a laser light source at 337 nm produces energy that can be transferred to Dylight-650 acceptor molecules if this donor:acceptor pair is within close proximity. Fluorescence intensity at both 665 nm (acceptor) and 615 nm (donor) are measured and a TR-FRET ratio calculated for each well (acceptor intensity/donor intensity). IC50 values were determined by 4 parameter robust fit of TR-FRET ratio values vs. (Log10) compound concentrations.
Background: In TR-FRET formats the signal depends on donor and acceptor labels being close together.
T1 sequence (Q06187 whole entry): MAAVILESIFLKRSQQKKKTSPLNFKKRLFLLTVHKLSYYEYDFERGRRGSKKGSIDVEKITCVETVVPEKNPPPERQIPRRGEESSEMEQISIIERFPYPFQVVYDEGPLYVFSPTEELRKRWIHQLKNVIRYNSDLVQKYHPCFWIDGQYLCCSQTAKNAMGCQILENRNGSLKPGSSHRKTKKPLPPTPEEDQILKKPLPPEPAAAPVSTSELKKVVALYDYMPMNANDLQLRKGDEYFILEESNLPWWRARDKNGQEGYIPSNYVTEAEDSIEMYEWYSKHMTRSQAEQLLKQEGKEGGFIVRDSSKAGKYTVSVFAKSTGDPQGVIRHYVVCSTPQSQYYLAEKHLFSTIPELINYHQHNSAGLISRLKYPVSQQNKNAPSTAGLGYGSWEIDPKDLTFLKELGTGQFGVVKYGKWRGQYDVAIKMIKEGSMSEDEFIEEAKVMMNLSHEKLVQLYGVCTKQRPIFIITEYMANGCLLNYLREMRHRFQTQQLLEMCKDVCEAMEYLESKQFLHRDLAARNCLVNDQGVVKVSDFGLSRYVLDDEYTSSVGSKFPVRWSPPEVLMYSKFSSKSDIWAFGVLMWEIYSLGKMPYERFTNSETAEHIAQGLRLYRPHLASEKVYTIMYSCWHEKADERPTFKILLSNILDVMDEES
A word on the IC50: it is the concentration that inhibits the measured activity by half. As to `N#CN1CCC[C@@H](c2nc(-c3ccc(C(=O)Nc4cc(C(F)(F)F)ccn4)cc3)c3c(N)nccn23)C1` [Example 1, 4-{8-amino-3-[(3R)-1-cyanopiperidin-3-yl]imidazo[1,5-a]pyrazin-1-yl}-N-[4-(trifluoromethyl)pyridin-2-yl]benzamide], the IC50 amounted to 3.6 nM. Then `N#CN1CCC[C@@H](c2nc(-c3ccc(C(=O)Nc4ccccn4)cc3)c3c(N)nccn23)C1` [Example 2, 4-{8-amino-3-[(3R)-1-cyanopiperidin-3-yl]imidazo[1,5-a]pyrazin-1-yl}-N-pyridin-2-ylbenzamide], with 1.5 nM; and `N#CN1CCC[C@H]1c1nc(-c2ccc(C(=O)Nc3ccccn3)cc2)c2c(N)nccn12` [Example 3, 4-{8-amino-3-[(2S)-1-cyanopyrrolidin-2-yl]imidazo[1,5-a]pyrazin-1-yl}-N-pyridin-2-ylbenzamide], with 60.3 nM. Then `N#CN1CCC[C@H]1c1nc(-c2ccc(C(=O)Nc3cc(F)ccn3)cc2)c2c(N)nccn12` [Example 4, 4-{8-amino-3-[(2S)-1-cyanopyrrolidin-2-yl]imidazo[1,5-a]pyrazin-1-yl}-N-(4-fluoropyridin-2-yl)benzamide], with 49 nM. Then `Cc1nccn2c([C@@H]3CCCN3C#N)nc(-c3ccc(C(=O)Nc4ccccn4)cc3)c12` [Example 5, 4-{3-[(2S)-1-cyanopyrrolidin-2-yl]-8-methylimidazo[1,5-a]pyrazin-1-yl}-N-pyridin-2-ylbenzamide], with 371 nM; and `N#CN1CCOC(c2nc(-c3ccc(C(=O)Nc4cc(C(F)(F)F)ccn4)cc3)c3c(N)nccn23)C1` (centres unmarked) [Example 6, 4-[8-amino-3-(4-cyanomorpholin-2-yl)imidazo[1,5-a]pyrazin-1-yl]-N-[4-(trifluoromethyl)pyridin-2-yl]benzamide], with 3.9 nM; and `N#CN1CCC[C@@H](c2nc(-c3ccc(C(=O)Nc4cc(C5CC5)ccn4)cc3)c3c(N)nccn23)C1` [Example 7, 4-{8-amino-3-[(3R)-1-cyanopiperidin-3-yl]imidazo[1,5-a]pyrazin-1-yl}-N-(4-cyclopropylpyridin-2-yl)benzamide], with 1.8 nM. `Cc1nccn2c([C@@H]3CCCN(C#N)C3)nc(-c3ccc(C(=O)Nc4cc(C5CC5)ccn4)cc3)c12` [Example 8, 4-{3-[(3R)-1-cyanopiperidin-3-yl]-8-methylimidazo[1,5-a]pyrazin-1-yl}-N-(4-cyclopropylpyridin-2-yl)benzamide]: the IC50 amounted to 46.8 nM.

In the case of `N#CN1CCC[C@H]1c1nc(-c2ccc(C(=O)Nc3cc(C4CC4)ccn3)cc2)c2c(N)nccn12` [Example 9, 4-{8-amino-3-[(2S)-1-cyanopyrrolidin-2-yl]imidazo[1,5-a]pyrazin-1-yl}-N-(4-cyclopropylpyridin-2-yl)benzamide], the IC50 is 67.6 nM.

In the case of `C[C@H]1CC[C@@H](c2nc(-c3ccc(C(=O)Nc4ccccn4)cc3)c3c(N)nccn23)CN1C#N` [Example 10, 4-{8-amino-3-[(3R,6S)-1-cyano-6-methylpiperidin-3-yl]imidazo[1,5-a]pyrazin-1-yl}-N-pyridin-2-ylbenzamide], the IC50 was determined as 3.1 nM. As for `N#CN1CCO[C@@H](c2nc(-c3ccc(C(=O)Nc4cc(C(F)(F)F)ccn4)cc3)c3c(N)nccn23)C1` [Example 11, 4-{8-amino-3-[(2R)-4-cyanomorpholin-2-yl]imidazo[1,5-a]pyrazin-1-yl}-N-[4-(trifluoromethyl)pyridin-2-yl]benzamide], the IC50 worked out at 0.78 nM. In the case of `N#CN1CCO[C@@H](c2nc(-c3ccc(C(=O)Nc4cc(C5CC5)ccn4)cc3)c3c(N)nccn23)C1` [Example 12, 4-{8-amino-3-[(2R)-4-cyanomorpholin-2-yl]imidazo[1,5-a]pyrazin-1-yl}-N-(4-cyclopropylpyridin-2-yl)benzamide], the IC50 was 1 nM. Then `N#CN1CCC[C@@H](c2nc(-c3ccc(C(=O)Nc4cc(C(F)(F)F)ccn4)cc3F)c3c(N)nccn23)C1` [Example 13, 4-{8-amino-3-[(3R)-1-cyanopiperidin-3-yl]imidazo[1,5-a]pyrazin-1-yl}-3-fluoro-N-[4-(trifluoromethyl)pyridin-2-yl]benzamide], with 0.36 nM; and `Cc1ccnc(NC(=O)c2ccc(-c3nc([C@@H]4CCCN(C#N)C4)n4ccnc(N)c34)cc2)c1` [Example 14, 4-{8-amino-3-[(3R)-1-cyanopiperidin-3-yl]imidazo[1,5-a]pyrazin-1-yl}-N-(4-methylpyridin-2-yl)benzamide], with 0.24 nM. To `COc1ccnc(NC(=O)c2ccc(-c3nc([C@@H]4CCCN(C#N)C4)n4ccnc(N)c34)cc2)c1` [Example 15, 4-{8-amino-3-[(3R)-1-cyanopiperidin-3-yl]imidazo[1,5-a]pyrazin-1-yl}-N-(4-methoxypyridin-2-yl)benzamide] belongs 0.41 nM; to `N#CN1CCC[C@@H](c2nc(-c3ccc(C(=O)Nc4cc(C(F)F)ccn4)cc3)c3c(N)nccn23)C1` [Example 16, 4-{8-amino-3-[(3R)-1-cyanopiperidin-3-yl]imidazo[1,5-a]pyrazin-1-yl}-N-[4-(difluoromethyl)pyridin-2-yl]benzamide], 0.29 nM; to `N#CN1CCC[C@@H](c2nc(-c3ccc(C(=O)Nc4cc(C(F)(F)F)ccn4)cc3)c3c(N)ncc(Cl)n23)C1` [Example 17, 4-{8-amino-5-chloro-3-[(3R)-1-cyanopiperidin-3-yl]imidazo[1,5-a]pyrazin-1-yl}-N-[4-(trifluoromethyl)pyridin-2-yl]benzamide], 0.19 nM. Regarding `COCc1cnc(N)c2c(-c3ccc(C(=O)Nc4cc(C(F)(F)F)ccn4)cc3F)nc([C@@H]3CCCN(C#N)C3)n12` [Example 18, 4-{8-amino-3-[(3R)-1-cyanopiperidin-3-yl]-5-(methoxymethyl)imidazo[1,5-a]pyrazin-1-yl}-3-fluoro-N-[4-(trifluoromethyl)pyridin-2-yl]benzamide], the IC50 was determined as 0.92 nM.

For `CCOc1cc(C(=O)Nc2cc(C(F)(F)F)ccn2)ccc1-c1nc([C@@H]2CCCN(C#N)C2)n2ccnc(N)c12` [Example 19, 4-{8-amino-3-[(3R)-1-cyanopiperidin-3-yl]imidazo[1,5-a]pyrazin-1-yl}-3-ethoxy-N-[4-(trifluoromethyl)pyridin-2-yl]benzamide], the 50% inhibitory concentration (IC50) was determined as 0.68 nM. Then `C[C@H]1CO[C@@H](c2nc(-c3ccc(C(=O)Nc4cc(C(F)(F)F)ccn4)cc3F)c3c(N)ncc(Cl)n23)CN1C#N` [Example 20, 4-{8-amino-5-chloro-3-[(2R,5S)-4-cyano-5-methylmorpholin-2-yl]imidazo[1,5-a]pyrazin-1-yl}-3-fluoro-N-[4-(trifluoromethyl)pyridin-2-yl]benzamide], with 0.48 nM; and `CCOc1cc(C(=O)Nc2cc(C(F)(F)F)ccn2)ccc1-c1nc([C@H]2CN(C#N)[C@@H](C)CO2)n2c(Cl)cnc(N)c12` [Example 21, 4-{8-amino-5-chloro-3-[(2R,5S)-4-cyano-5-methylmorpholin-2-yl]imidazo[1,5-a]pyrazin-1-yl}-3-ethoxy-N-[4-(trifluoromethyl)pyridin-2-yl]benzamide], with 1.5 nM; and `COc1cc(C(=O)Nc2cc(C(F)(F)F)ccn2)ccc1-c1nc([C@H]2CN(C#N)CCO2)n2ccnc(N)c12` [Example 22, 4-{8-amino-3-[(2R)-4-cyanomorpholin-2-yl]imidazo[1,5-a]pyrazin-1-yl}-3-methoxy-N-[4-(trifluoromethyl)pyridin-2-yl]benzamide], with 0.6 nM.

`CCOc1cc(C(=O)Nc2cc(C(F)(F)F)ccn2)ccc1-c1nc([C@@H]2CC[C@H](C)N(C#N)C2)n2c(Cl)cnc(N)c12` [Example 23, 4-{8-amino-5-chloro-3-[(3R,6S)-1-cyano-6-methylpiperidin-3-yl]imidazo[1,5-a]pyrazin-1-yl}-3-ethoxy-N-[4-(trifluoromethyl)pyridin-2-yl]benzamide]: the IC50 was 2.2 nM.

(Values after patent US20180079752A1, “BTK INHIBITORS” (MERCK SHARP & DOHME CORP., priority 2015, published 2018).)
